Laboratory results reported in patent publication US9420790B2, “Molecules that induce disease resistance and improve growth in plants” (The Regents of the University of California, priority 2013, dated 2016).
Entries after “also recorded” stand apart in the source; their conditions may differ.

Experiments:
[1] = test system: CaBP22^−333::GUS expression; assay: CaBP22-333::GUS reporter assay, liquid-grown seedlings (saturation treatment); format: in vivo, Arabidopsis thaliana; conditions: within 24 h, one week-old seedlings
Protocol: (§1) B. Trypan blue staining of CaBP22^−333 : :GUS seedlings incubated for 24 h in medium containing compounds at the indicated concentrations.
(§2) To quantify the bioactivity of HTC, we performed various assays with one week-old CaBP22^−333::GUS seedlings submerged in liquid growth medium containing HTC or mock-solution (saturation treatment). […] To examine if HTC induces phytotoxicity, we stained Col-0 seedlings after saturation treatment with trypan blue.
(§3) To determine which substituents or moieties of the HTC molecule are critical for its defense-inducing activity, seven commercially available HTC analogs were analyzed (FIG. 3A). We compared the ability of these compounds to induce GUS expression in saturation treated CaBP22^−333::GUS Arabidopsis seedlings to that of DCA and HTC. […] We also used trypan blue staining to examine HTC-analog-induced phytotoxicity.

[2] = test system: Col-0 seedlings; assay: Trypan blue staining for phytotoxicity (cell death) after saturation treatment; format: in vivo, Arabidopsis thaliana
Protocol: as §1, §2, §3

[3] = test system: Peronospora isolate Noco2; assay: Noco2 spore inhibition assay in soil-grown seedlings; format: in vivo, Hyaloperonospora arabidopsidis; conditions: for HTC-triggered immunity to Noco2: 100 μM; for suppression of Noco2 spore formation / resistance to Noco2: 7 dpi
Protocol: FIG. 2. Kinetic analysis of chemically-induced disease resistance. Experiments were conducted with three-week-old soil-grown Col-0 seedlings sprayed with 100 μM HTC, DCA, INA, or mock solution (1% DMSO) at the indicated times prior to being sprayed with 2×10^4 mL^−1Noco2 spores (2 ml per pot). Peronospora (Hyeloperonospora arabidopsidis) spores were counted 7 dpi (days post-infection). Mean and SE values were calculated from a minimum of three biological replicates and the average of those is shown above.
FIG. 3. Structure-activity analysis of HTC analogs. A. Chemical structures of DCA, HTC and tested HTC analogs. Chiral centers of the HTC skeleton are indicated by “1*” and “2*” in HTC. B. Noco2 spore inhibition assay. Three-week-old soil-grown Col-0 seedlings were spray-infected 24 h after treating with varying concentrations of each synthetic elicitor and then assayed at 7 dpi for spore growth. 100% inhibition=0 spores. […] The average of those three replicates is shown. Significant differences of compound-treated compared to mock-treated seedlings determined by Student's t-tests (p<0.05) are marked by colored four pointed stars.
FIG. 4. Analysis of HTC activity in defense mutant plants. A & B. RT-PCR analysis of CaBP22 transcript levels in Col-0 (wild-type) and mutant backgrounds 24 h after spraying 2-week-old seedlings with mock-solution (1% DMSO), 100 μM DCA, or HTC. RT-PCRs with ACTIN are shown as loading controls. […] C. Analysis of HTC activity in Col-0 or nahG background. Experiments were conducted with three-week-old soil-grown Col-0 or nahG seedlings sprayed with 100 μM HTC, 100 μM DCA, or mock-solution (1% DMSO) 24 h prior to infection with 2×10^4 virulent Noco2 spores ml^−1 (2 ml per pot). Spores were counted at 7 dpi. Mean and SE values were calculated from a minimum of three biological replicates and their averages of are shown.
We next tested whether HTC could induce pathogen resistance in soil-grown plants. […] To determine if HTC differs from other synthetic elicitors in the kinetics of defense induction, Col-0 seedlings were sprayed with 100 μM of INA, DCA, HTC, or mock, 1 h, 3 h, 1 d, 3 d, or 6 d prior to pathogen challenge.
We performed a dose-response analysis of inhibition of Noco2 spore development in three-week old Col-0 plants using the HTC analogs (FIG. 3B).
We also compared the biological activity of s-HTC to that of p-HTC by spraying a concentration gradient of both preparations on soil-grown Col-0 seedlings 24 h prior to challenge with Noco2.

[4] = test system: Tomato cv. Moneymaker seedlings; assay: Root length of plate-grown tomato seedlings; format: in vivo, Solanum lycopersicum; conditions: 1 μM
Protocol: (§4) FIG. 7. Relative root length and FW of tomato seedlings and shoots. Tomato cv. Moneymaker seedlings treated with HTC compared to seedlings treated with control (DMSO 0.01%). A. Moneymaker seedlings were plated in square petri dishes on ½ MS medium containing HTC. Root length was measured at day 2, 4, 6, and 8. Results are expressed as percentages of the average root length on 1 μM HTC or control. The average, standard error, and Student's t-test (p<0.05) were calculated from these values. Each time point represents at least 89 distinct root length measurements from at least three biological replicates. Y-axis represents percent of root growth in the presence of synthetic elicitor compared to controls. B. Moneymaker seeds (five seeds per pot with a minimum of 21 pots) were sown on soil drenched with 20 ml of the indicated concentrations of HTC or their respective control. Fresh weight (FW) of the above-ground plant tissues was measured at day 14. Results are expressed as percentages of the average weight of HTC treatments compared to those of the controls. The standard error and Student's t-test (p<0.01) were calculated from at least three biological replicates and the average is shown above. Significant differences between synthetic elicitor-treated and control-treated plants are marked by stars above the corresponding data points. […]

[5] = test system: Tomato cv. Moneymaker seedlings; assay: Root drench assay, aerial fresh weight of soil-grown tomato; format: in vivo, Solanum lycopersicum; conditions: 10 μM single soil drench, day 14
Protocol: as §4

O=C(O)C1CSC(c2cc(Br)ccc2O)N1 (centres unmarked) [HTC, 2-(5-bromo-2-hydroxy-phenyl)-thiazolidine-4-carboxylic acid]
concentration activating CaBP22-333::GUS expression (as low as) [1]: 1 µM
cell death (trypan blue staining) ([2]; lower concentrations that resulted in reporter activation (1-100 μM)): No cell death
seedlings with cell death (trypan blue staining) ([2]; treated for 24 h at 300 μM): 100%
HTC-triggered immunity to Noco2 ([3]; 6 dpt): not detectable
HTC-triggered immunity to Noco2 ([3]; 3 days post treatment (dpt)): reduced
efficacy of s-HTC versus p-HTC in reducing Noco2 spore counts ([3]; 20, 50, 100, and 200 μM sprayed on Col-0 24 h prior to challenge): No significant difference
suppression of Noco2 spore formation / resistance to Noco2 ([3]; Col-0, 100 μM sprayed 24 h prior to infection): able to do so; also recorded: significantly suppresses
concentration giving significantly reduced numbers of Noco2 spores (as low as) ([3]; Col-0 sprayed prior to infection, spores 7 dpi): 10 µM
level of protection / defense-inducing activity against Noco2 ([3]; dose-response, three-week old Col-0 (FIG. 3B)): highest protection; also recorded: most potent of the tested analogs
concentration giving significant protection against Noco2 ([3]; dose-response, three-week old Col-0, infected 24 h after treatment, 7 dpi (FIG. 3B)): 10 µM
suppression of Noco2 spore formation / resistance to Noco2 ([3]; nahG, 100 μM sprayed 24 h prior to infection): did not observe significant reduction and not
change in root length ([4]; all analyzed time-points): significant increase in root length
root length relative to mock-treated plants ([4]; day 6): 136.1%
fresh weight of shoots relative to mock-treated plants [5]: 128.5%
